Tests used:
[1] = test system: histamine-induced dermovascular penetration increase; assay: Effect on histamine-induced dermovascular penetration increase; assay type: in vivo, guinea pig (5-week old); conditions: Cavia porcellus, 0.5 h; oral, 60 minutes before intradermal histamine (1 μg); blue spot area at 30 min; guinea pig; read-out: ID50 (the source's name)
Procedure: (4) Effect on histamine-induced dermovascular penetration increase In a shaved dorsal skin of a guinea pig (5-week old), 0.1 ml (1 μg) of histamine was intradermally injected. […] Thirty minutes later, the animal was sacrificed under exsanguination and was evaluated by square of the shortest and the longest diameters of the blue spot (histamine-injected site). Each test compound was orally administered 60 minutes before the injection of histamine.

[2] = test system: isolated guinea pig ileum; assay: Antihistaminergic action on the isolated guinea pig ileum (histamine-induced contraction); assay type: cell-based, guinea pig (Hartley male); conditions: Cavia porcellus
Procedure: (1) Antihistaminergic action on the isolated guinea pig ileum
(§1) After a Hartley male guinea pig was sacrificed under ether anesthesia and exsanguination, the ileum was immediately isolated and a preparation was prepared. The preparation was suspended in a 20 ml Magnus bath containing 32° C. Tyrode solution (95% O2 -5% CO2 saturation) and was placed under resting tension of 1 g. The isometrical changes of the muscular tension produced were recorded on the polygraph through the force displacement transducer.

[3] = test system: isolated guinea pig ileum; assay: Antiacetylcholinergic action on the isolated guinea pig ileum (acetylcholine-induced contraction); assay type: cell-based, guinea pig (Hartley male); conditions: Cavia porcellus
Procedure: as §1
(2) Antiacetylcholinergic action on the isolated guinea pig ileum

[4] = test system: isolated guinea pig ileum; assay: Antihistamine selectivity determined from experiments (1) and (2); assay type: cell-based; conditions: determined from results of experiments (1) antihistaminergic and (2) antiacetylcholinergic action
Procedure: as §1
(3) Antihistamine selectivity
From the results of the above experiments (1) and (2), the antihistamine selectivity was determined in accordance with the following formula. [formula]

ddy male mice = assay: Effects on sleeping time (pentobarbital-induced); assay type: in vivo, mouse (ddy male); conditions: 10 mg/kg oral, 1 hour before pentobarbital (50 mg/kg i.p.), n=10, control 46.6 ± 3.8, ** p < 0.01 relative to the control (marked for loratadine only)
Procedure: (5) Effects on sleeping time Animals used in groups were ddy male mice, each group consisting of ten mice. After fasted for 24 hours, they were orally administered with a test compound. Upon an elapsed time of 1 hour after the oral administration, pentobarbital (50 mg/kg) was intraperitoneally administered and the sleeping time was measured. Statistical evaluation was performed by one-way analysis of variance, followed by the Turkey test for multiple comparison.

Acute toxicity = conditions: mouse, in vivo; oral, ICR mice
From the text: The invention compound (Compound No. 1) was orally administered to ICR mice.

Row | SMILES | ED50 [1] | IC50 [2] | IC50 [3] | Antihistamic selectivity [4] | Sleeping time (ddy male mice) | IC50 ([2]; vs histamine (10^-5 M)-induced contraction, isolated guinea pig ileum, 32° C. Tyrode solution, read-out: IC50) | IC50 ([3]; vs acetylcholine (3×10^-5 M), isolated guinea pig ileum, read-out: IC50) | LD50 (Acute toxicity)
1 | CC(C)(C)c1ccc(C(O)CCCN2CCC(C(O)(c3ccccc3)c3ccccc3)CC2)cc1 (stereo not drawn) [Terfenadine] | 3.34 mg/kg | – | – | – | – | – | – | –
2 | CCOC(=O)N1CCC(=C2c3ccc(Cl)cc3CCc3cccnc32)CC1 [Loratadine] | 0.534 mg/kg | 0.123 µM | 23.4 µM | 190 | 75.7 ± 5.8 min | – | – | –
3 | CN1CCC(=C2c3ccc(C#N)cc3CCc3cccnc32)CC1 [Compound No. 1, 8-Cyano-11-(1-methyl-4-piperidylidene)-6,11-dihydro-5H-benzo[5,6]-cyclohepta[1,2-b]pyridine] | 0.012 mg/kg | – | – | 3212 | 62.9 ± 5.8 min | 0.0151 µM | 48.5 µM | 657 mg/kg
